# In patent publication US20240000872A1, “NOVEL BACTERIOPHAGE THAT LYSES ACINETOBACTER GENUS BACTERIA HAVING RESISTANCE TO ANTIBIOTICS” (priority 2020, published 2024):
# Test system: Acinetobacter baumannii strains
# Assay: Antibiotic susceptibility test (CLSI disk diffusion test method, read per CLSI 2016); further: key: ‘S’ means susceptible; ‘I’ means intermediate; ‘R’ means resistant
# Assay type: cell-based
structure (smiles),measurement,setting,value
"CN(C)c1ccc(O)c2c1C[C@H]1C[C@H]3[C@H](N(C)C)C(O)=C(C(N)=O)C(=O)[C@@]3(O)C(O)=C1C2=O [Minocycline, minocycline]",antibiotic susceptibility class,host strain YMC14/01/C29,S
same,antibiotic susceptibility class,host strain YMC14/01/IP122,S
same,antibiotic susceptibility class,host strain YMC14/01/L8,S
same,antibiotic susceptibility class,host strain YMC14/01/P31,S
same,antibiotic susceptibility class,host strain YMC14/01/P117,S
same,antibiotic susceptibility class,host strain YMC14/01/P224,S
same,antibiotic susceptibility class,host strain YMC14/01/P727,S
same,antibiotic susceptibility class,host strain YMC14/01/P728,S
same,antibiotic susceptibility class,host strain YMC14/01/R130,S
same,antibiotic susceptibility class,host strain YMC14/01/R160,I
same,antibiotic susceptibility class,host strain YMC14/01/R198,I
same,antibiotic susceptibility class,host strain YMC14/01/R257,I
same,antibiotic susceptibility class,host strain YMC14/01/R270,S
same,antibiotic susceptibility class,host strain YMC14/01/R324,S
same,antibiotic susceptibility class,host strain YMC14/01/R443,I
same,antibiotic susceptibility class,host strain YMC14/01/R451,R
same,antibiotic susceptibility class,host strain YMC14/01/R560,R
same,antibiotic susceptibility class,host strain YMC14/01/R617,R
same,antibiotic susceptibility class,host strain YMC14/01/R671,I
same,antibiotic susceptibility class,host strain YMC14/01/R732,S
same,antibiotic susceptibility class,host strain YMC14/01/R767,S
same,antibiotic susceptibility class,host strain YMC14/01/R904,I
same,antibiotic susceptibility class,host strain YMC14/01/R905,I
same,antibiotic susceptibility class,host strain YMC14/01/R921,S
same,antibiotic susceptibility class,host strain YMC14/01/R941,S
same,antibiotic susceptibility class,host strain YMC14/01/R958,S
same,antibiotic susceptibility class,host strain YMC14/01/R1006,S
same,antibiotic susceptibility class,host strain YMC14/01/R1199,S
same,antibiotic susceptibility class,host strain YMC14/01/R1659,S
same,antibiotic susceptibility class,host strain YMC14/01/R1722,S
same,antibiotic susceptibility class,host strain YMC14/01/R1752,S
same,antibiotic susceptibility class,host strain YMC14/01/R2429,S
same,antibiotic susceptibility class,host strain YMC14/01/R2572,S
same,antibiotic susceptibility class,host strain YMC14/01/R2855,S
same,antibiotic susceptibility class,host strain YMC14/01/R2945,S
same,antibiotic susceptibility class,host strain YMC14/01/R3007,S
same,antibiotic susceptibility class,host strain YMC14/01/R3129,S
same,antibiotic susceptibility class,host strain YMC14/01/R3317,S
same,antibiotic susceptibility class,host strain YMC14/01/R3474,S
same,antibiotic susceptibility class,host strain YMC14/01/R3574,S
same,antibiotic susceptibility class,host strain YMC14/01/U313,S
same,antibiotic susceptibility class,host strain YMC14/01/U318,I
same,antibiotic susceptibility class,host strain YMC14/02/L18,S
same,antibiotic susceptibility class,host strain YMC14/02/P47,S
same,antibiotic susceptibility class,host strain YMC14/02/R1860,S
same,antibiotic susceptibility class,host strain YMC14/02/R2417,S
same,antibiotic susceptibility class,host strain YMC14/02/R2599,S
same,antibiotic susceptibility class,host strain YMC14/02/R2668,S
same,antibiotic susceptibility class,host strain YMC14/02/R2758,S
same,antibiotic susceptibility class,host strain YMC14/02/R2781,S
same,antibiotic susceptibility class,host strain YMC14/02/R3106,S
same,antibiotic susceptibility class,host strain YMC14/02/R3419,S
same,antibiotic susceptibility class,host strain YMC14/02/U1607,S
same,antibiotic susceptibility class,host strain YMC14/03/L9,S
same,antibiotic susceptibility class,host strain YMC14/03/P471,S
same,antibiotic susceptibility class,host strain YMC14/03/R122,S
same,antibiotic susceptibility class,host strain YMC14/03/R217,S
same,antibiotic susceptibility class,host strain YMC14/03/R380,S
same,antibiotic susceptibility class,host strain YMC14/03/R618,S
same,antibiotic susceptibility class,host strain YMC14/03/R2144,S
same,antibiotic susceptibility class,host strain YMC14/03/U4616,S
same,antibiotic susceptibility class,host strain YMC14/04/R1078,S
same,antibiotic susceptibility class,host strain YMC14/04/R1080,S
same,antibiotic susceptibility S/I/R,host strain YMC14/06/R2359,S
same,susceptibility category (S/I/R),host strain YMC14/06/R2359,S
same,antibiotic susceptibility S/I/R,host strain YMC14/08/R1169,S
same,susceptibility category (S/I/R),host strain YMC14/08/R1169,S
same,antibiotic susceptibility S/I/R,host strain YMC14/08/T90,S
same,susceptibility category (S/I/R),host strain YMC14/08/T90,S
same,antibiotic susceptibility S/I/R,host strain YMC15/02/R436,R
same,susceptibility category (S/I/R),host strain YMC15/02/R436,R
same,antibiotic susceptibility S/I/R,host strain YMC15/02/T28,S
same,susceptibility category (S/I/R),host strain YMC15/02/T28,S
same,antibiotic susceptibility S/I/R,host strain YMC15/03/R1604,S
same,susceptibility category (S/I/R),host strain YMC15/03/R1604,S
same,antibiotic susceptibility S/I/R,host strain YMC15/09/R1869,S
same,susceptibility category (S/I/R),host strain YMC15/09/R1869,S
same,antibiotic susceptibility S/I/R,host strain YMC16/01/P11,S
same,susceptibility category (S/I/R),host strain YMC16/01/P11,S
same,antibiotic susceptibility S/I/R,host strain YMC16/01/R123,S
same,susceptibility category (S/I/R),host strain YMC16/01/R123,S
same,antibiotic susceptibility S/I/R,host strain YMC16/01/R198,S
same,susceptibility category (S/I/R),host strain YMC16/01/R198,S
same,antibiotic susceptibility S/I/R,host strain YMC16/01/R353,S
same,susceptibility category (S/I/R),host strain YMC16/01/R353,S
same,antibiotic susceptibility S/I/R,host strain YMC16/01/R380,S
same,susceptibility category (S/I/R),host strain YMC16/01/R380,S
same,antibiotic susceptibility S/I/R,host strain YMC16/01/R397,S
same,susceptibility category (S/I/R),host strain YMC16/01/R397,S
same,antibiotic susceptibility S/I/R,host strain YMC16/01/R405,S
same,susceptibility category (S/I/R),host strain YMC16/01/R405,S
same,antibiotic susceptibility S/I/R,host strain YMC16/03/R4461,S
same,susceptibility category (S/I/R),host strain YMC16/03/R4461,S
same,antibiotic susceptibility S/I/R,host strain YMC16/05/R2210,S
same,susceptibility category (S/I/R),host strain YMC16/05/R2210,S
same,antibiotic susceptibility S/I/R,host strain YMC16/07/R2512,S
same,susceptibility category (S/I/R),host strain YMC16/07/R2512,S
same,antibiotic susceptibility S/I/R,host strain YMC16/09/R2471,S
same,susceptibility category (S/I/R),host strain YMC16/09/R2471,S
same,antibiotic susceptibility S/I/R,host strain YMC16/10/R2537,S
same,susceptibility category (S/I/R),host strain YMC16/10/R2537,S
same,antibiotic susceptibility S/I/R,host strain YMC16/12/B11422,S
same,susceptibility category (S/I/R),host strain YMC16/12/B11422,S
same,antibiotic susceptibility S/I/R,host strain YMC16/12/B11449,S
same,susceptibility category (S/I/R),host strain YMC16/12/B11449,S
same,antibiotic susceptibility S/I/R,host strain YMC16/12/B13325,S
same,susceptibility category (S/I/R),host strain YMC16/12/B13325,S
same,antibiotic susceptibility S/I/R,host strain YMC16/12/P503,R
same,susceptibility category (S/I/R),host strain YMC16/12/P503,R
same,antibiotic susceptibility S/I/R,host strain YMC16/12/R4637,R
same,susceptibility category (S/I/R),host strain YMC16/12/R4637,R
same,antibiotic susceptibility S/I/R,host strain YMC17/01/B8053,S
same,susceptibility category (S/I/R),host strain YMC17/01/B8053,S
same,antibiotic susceptibility S/I/R,host strain YMC17/01/B10087,S
same,susceptibility category (S/I/R),host strain YMC17/01/B10087,S
same,antibiotic susceptibility S/I/R,host strain YMC17/01/B12075,S
same,susceptibility category (S/I/R),host strain YMC17/01/B12075,S
same,antibiotic susceptibility S/I/R,host strain YMC17/01/B13454,S
same,susceptibility category (S/I/R),host strain YMC17/01/B13454,S
same,antibiotic susceptibility S/I/R,host strain YMC17/01/P518,S
same,susceptibility category (S/I/R),host strain YMC17/01/P518,S
same,antibiotic susceptibility S/I/R,host strain YMC17/01/R2812,R
same,susceptibility category (S/I/R),host strain YMC17/01/R2812,R
same,susceptibility category (S/I/R),host strain YMC17/02/B14,I
same,susceptibility category (S/I/R),host strain YMC17/02/B87,I
same,antibiotic susceptibility S/I/R,host strain YMC17/02/B721,S
same,susceptibility category (S/I/R),host strain YMC17/02/B721,S
same,antibiotic susceptibility S/I/R,host strain YMC17/02/B4039,S
same,susceptibility category (S/I/R),host strain YMC17/02/B4039,S
same,antibiotic susceptibility S/I/R,host strain YMC17/02/B4520,S
same,susceptibility category (S/I/R),host strain YMC17/02/B4520,S
same,antibiotic susceptibility S/I/R,host strain YMC17/02/B4864,S
same,susceptibility category (S/I/R),host strain YMC17/02/B4864,S
same,antibiotic susceptibility S/I/R,host strain YMC17/02/B8414,S
same,susceptibility category (S/I/R),host strain YMC17/02/B8414,S
same,antibiotic susceptibility S/I/R,host strain YMC17/02/P523,S
same,susceptibility category (S/I/R),host strain YMC17/02/P523,S
same,antibiotic susceptibility S/I/R,host strain YMC17/02/R541,R
same,susceptibility category (S/I/R),host strain YMC17/02/R541,R
same,antibiotic susceptibility S/I/R,host strain YMC17/02/R2392,S
same,susceptibility category (S/I/R),host strain YMC17/02/R2392,S
same,antibiotic susceptibility S/I/R,host strain YMC17/03/B4730,S
same,susceptibility category (S/I/R),host strain YMC17/03/B4730,S
same,susceptibility category (S/I/R),host strain YMC17/03/B5000,I
same,antibiotic susceptibility S/I/R,host strain YMC17/03/P971,S
same,susceptibility category (S/I/R),host strain YMC17/03/P971,S
same,antibiotic susceptibility S/I/R,host strain YMC17/03/R348,S
same,susceptibility category (S/I/R),host strain YMC17/03/R348,S
same,antibiotic susceptibility S/I/R,host strain YMC17/03/R585,R
same,susceptibility category (S/I/R),host strain YMC17/03/R585,R
same,antibiotic susceptibility S/I/R,host strain YMC17/03/R1888,S
same,susceptibility category (S/I/R),host strain YMC17/03/R1888,S
same,antibiotic susceptibility S/I/R,host strain YMC17/03/R3279,S
same,susceptibility category (S/I/R),host strain YMC17/03/R3279,S
same,antibiotic susceptibility S/I/R,host strain YMC17/03/R4077,S
same,susceptibility category (S/I/R),host strain YMC17/03/R4077,S
same,antibiotic susceptibility S/I/R,host strain YMC17/03/R4607,R
same,susceptibility category (S/I/R),host strain YMC17/03/R4607,R
same,antibiotic susceptibility S/I/R,host strain YMC17/04/R488,S
same,susceptibility category (S/I/R),host strain YMC17/04/R488,S
same,antibiotic susceptibility S/I/R,host strain YMC17/04/R640,S
same,susceptibility category (S/I/R),host strain YMC17/04/R640,S
same,antibiotic susceptibility S/I/R,host strain YMC/17/05/R1095,S
same,susceptibility category (S/I/R),host strain YMC/17/05/R1095,S
